Usually IC50 stands for the point on the concentration scale where inhibition reaches its midpoint.

The target of the first experiment is T1, AURKB (Aurora B) enzyme (Homo sapiens, UniProt Q96GD4).
T1 construct: purchased Invitrogen PVR 130
T1 sequence (Q96GD4 whole entry): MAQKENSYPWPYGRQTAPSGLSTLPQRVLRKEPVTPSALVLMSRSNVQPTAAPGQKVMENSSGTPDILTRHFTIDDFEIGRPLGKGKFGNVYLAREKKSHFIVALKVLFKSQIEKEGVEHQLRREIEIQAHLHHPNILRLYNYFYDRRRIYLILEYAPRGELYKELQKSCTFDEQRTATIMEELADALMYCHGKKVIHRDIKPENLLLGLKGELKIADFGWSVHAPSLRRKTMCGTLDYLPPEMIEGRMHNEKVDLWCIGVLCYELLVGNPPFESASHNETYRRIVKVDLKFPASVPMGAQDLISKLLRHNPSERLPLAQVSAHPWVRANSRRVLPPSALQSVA
Put plainly: Aurora B HTRF assay. The class given is biochemical. As to conditions: read-out: AuroraB IC50. The method, then:
AURKB (Aurora B) enzyme was obtained (Invitrogen, Cat No. PVR 130, Lot No. 857013J). A 8.64 μM stock was used at a final concentration 5 nM in the assay.
Lance@Ultera Ulight-PLK (Ser137) peptide substrate
Peptide substrate was obtained from Perkin Elmer (Lot#1629793, TRF0110-M). A 5 μM stock was used at a final concentration of 50 nM in the assay.
10 mM stock prepared freshly as above, used at a final concentration of 30 μM in assay.
The plate was covered with aluminum foil, put on a shaker and incubated 1 h at rt.
Reference: Pfizer aurora inhibitor PF-03814735 was procured from Selleckchem: Cat# S2725
Using stock Lance detection buffer, 1× Lance detection buffer was prepared. • 1. 10× lance detection buffer was diluted to 1×, mixed well and 100 μL was removed, and was used to substitute with antibody and EDTA (for a total of 2200 μL). • 2. 88 μL of […] EDTA was added from 500 mM stock. • 3. 14 μL Europium labeled antibody (LANCE@ Ultra EU-Anti-P-PLK(Ser 137), TRF0203-D, Lot No. 1630351, Perkin Elmer) was added from 625 nM stock; required concentration was 2 nM in the assay. • 4. The buffer well was mixed and 20 μL was transferred to the each well in the assay plate. • 5. The solutions were incubated for 1 h at rt. • 6. The plate was read using MET-HTRF® protocol using Pherastar equipment.
On to `Cc1nn(Cc2cccnc2N(C)S(C)(=O)=O)c2cc(Nc3ccc4c(c3)CCC(=O)N4)ncc12` [Example 69], for which the half-maximal inhibitory concentration (IC50) is more than 1000 nM.
On to `CC(=O)Nc1ccc(Nc2cc3c(cn2)cnn3Cc2ccccc2OC(F)F)nc1` [Example 73], for which the concentration for half-maximal inhibition (IC50) was more than 1000 nM.
Still for that read-out and setting: in the case of `CC(=O)Nc1ccc(Nc2cc3c(cn2)cnn3Cc2ccccc2OC(F)F)cc1` [Example 75] it was more than 1000 nM; in that of `N#Cc1ccccc1S(=O)(=O)n1ccc2cnc(Nc3ccc4c(c3)CCC(=O)N4)nc21` [Example 115], less than 20 nM.
Still for that read-out and setting: the value for `CN(C)c1cccc(Nc2ncc3ccn(Cc4cccnc4N(C)S(C)(=O)=O)c3n2)c1` [Example 139] was less than 20 nM.
As for `Nc1ccccc1S(=O)(=O)n1ccc2cnc(Nc3ccc4c(c3)CCC(=O)N4)nc21` [Example 164], the half-inhibitory concentration (IC50) was less than 20 nM.
As to `CN(c1ncccc1Cn1ccc2cnc(Nc3cccc(CO)c3)nc21)S(C)(=O)=O` [Example 166], the half-inhibitory concentration (IC50) was less than 20 nM.
As to `CN(C)CCOc1cccc(Nc2ncc3ccn(S(=O)(=O)c4ccccc4C#N)c3n2)c1` [Example 173], the IC50 was less than 20 nM.
As to `CN(c1ncccc1Cn1ccc2cnc(Nc3ccc4nn[nH]c4c3)nc21)S(C)(=O)=O` [Example 189], the IC50 is less than 20 nM.
With `CN(C)S(=O)(=O)c1ccccc1Cn1ccc2cnc(Nc3ccc(N4CCNCC4)cc3)nc21` [Example 200], the IC50 was less than 20 nM.
As for `CN(c1ncccc1Cn1ccc2cnc(Nc3ccc4c(c3)C(C)(C)CC(=O)N4)nc21)S(C)(=O)=O` [Example 211], the concentration for half-maximal inhibition (IC50) was less than 20 nM.
On to `CN(c1ncccc1Cn1ccc2cnc(Nc3ccc4c(c3)OCC(=O)N4)nc21)S(C)(=O)=O` [Example 218], for which the IC50 is less than 20 nM.
Still for that read-out and setting: the value for `C[C@H]1CN(c2ccc(Nc3ncc4ccn(S(=O)(=O)c5cccc6cccnc56)c4n3)cc2)CCN1` [Example 230] was less than 20 nM; that for `O=S(=O)(c1cccc2cccnc12)n1ncc2cnc(Nc3ccc(N4CCNCC4)cc3)nc21` [Example 231, N-(4-(piperazin-1-yl)phenyl)-1-(quinolin-8-ylsulfonyl)-1H-pyrazolo[3,4-d]pyrimidin-6-amine] was less than 20 nM.
On the same count and under the same terms, in the case of `O=S(=O)(c1cccc2cccnc12)n1ccc2cnc(Nc3ccc(N4CCNCC4)cc3)cc21` [Example 321] it was less than 20 nM.
The same measure, in the same setting: the value for `O=S(=O)(c1cccc2cccnc12)n1ccc2cnc(Nc3ccc(N4CCNCC4)c(F)c3)cc21` [Example 323] was less than 20 nM.
Regarding `Cc1ccc2cccc(S(=O)(=O)n3ccc4cnc(Nc5ccc(N6CCNCC6)cc5)nc43)c2n1` [Example 367], the IC50 was less than 20 nM.
With `c1cnc2c(Cn3ccc4cnc(Nc5ccc(N6CCNCC6)cc5)nc43)cccc2c1` [Example 378], the IC50 is less than 20 nM.
The same measure, in the same setting: in the case of `CN(c1ncccc1CN1C(=O)Cc2cnc(Nc3ccc(N4CCC(O)CC4)cc3)nc21)S(C)(=O)=O` [Example 404] it was more than 1000 nM; in that of `CC1(C)CN(S(=O)(=O)c2ccccc2C#N)c2nc(Nc3ccc(N4CCNCC4)cc3)ncc21` [Example 461], more than 1000 nM.
Still for that read-out and setting: the value for `CN(c1ccccc1Cn1ccc2cnc(Nc3ccc(N4CCC(N)CC4)cc3)nc21)S(C)(=O)=O` [Example 463] was less than 20 nM.
The same measure, in the same setting: the value for `C[C@@H]1CN(c2ccc(Nc3ncc4c(n3)N(S(=O)(=O)c3ccccc3C#N)CC4(C)C)cc2)CCN1` [Example 466] was more than 1000 nM; that for `C[C@@H]1CNCCN1c1ccc(Nc2ncc3ccn(Cc4ccccc4N(C)S(C)(=O)=O)c3n2)cc1` [Example 482] was less than 20 nM; that for `C[C@H]1CN(c2ccc(Nc3ncc4ccn(Cc5cccnc5N(C)S(C)(=O)=O)c4n3)cc2)CCN1C` [Example 487] was less than 20 nM.
For the molecule `C[C@@H]1CN(C)CCN1c1ccc(Nc2ncc3ccn(Cc4ccccc4N(C)S(C)(=O)=O)c3n2)cc1` [Example 488], the IC50 is less than 20 nM.
On the same count and under the same terms, the value for `CN1CCN(c2ccc(Nc3ncc4c(n3)N(S(=O)(=O)c3cccc5cccnc35)CC4(C)C)cc2)CC1` [Example 498] was more than 1000 nM.
For the molecule `CC1(C)CN(S(=O)(=O)c2cccc3cccnc23)c2nc(Nc3ccc(N4CCNCC4)c(F)c3)ncc21` [Example 524], the 50% inhibitory concentration (IC50) is more than 1000 nM.
The same measure, in the same setting: the value for `N#Cc1ccccc1S(=O)(=O)n1ccc2cnc(Nc3ccc4c(c3)CC3CNCCN43)cc21` (stereo not shown) [Example 551] was less than 20 nM; that for `CN(c1ccccc1Cn1ccc2cnc(Nc3ccc(N4CCNC(C)(C)C4=O)cc3)nc21)S(C)(=O)=O` [Example 552] was less than 20 nM; that for `C[C@H]1CN(c2ccc(Nc3ncc4c(n3)N(S(=O)(=O)c3cccc5cccnc35)CC4(C)C)cc2F)CCN1` [Example 554] was more than 1000 nM.
The same measure, in the same setting: the value for `C[C@H]1CN(c2ccc(Nc3ncc4ccn(Cc5ccccc5N(C)S(C)(=O)=O)c4n3)cc2F)CCN1` [Example 557] was less than 20 nM; that for `C[C@H]1CNCCN1c1ccc(Nc2ncc3c(n2)N(S(=O)(=O)c2cccc4cccnc24)CC3(C)C)cc1` [Example 564] was more than 1000 nM; that for `CN(C)C1CCCN(c2ccc(Nc3ncc4ccn(Cc5ccccc5N(C)S(C)(=O)=O)c4n3)cc2)C1` (stereo not shown) [Example 598] was less than 20 nM.
Still for that read-out and setting: in the case of `CN(c1ccccc1Cn1ccc2cnc(Nc3ccc(N4CCNC(CO)C4)cc3)nc21)S(C)(=O)=O` (stereo not shown) [Example 602] it was less than 20 nM; in that of `CN(C)C1CN(c2ccc(Nc3ncc4ccn(Cc5ccccc5N(C)S(C)(=O)=O)c4n3)cc2F)C1` [Example 608], less than 20 nM; in that of `CN(c1ccccc1Cn1ccc2cnc(Nc3ccc(C4CNCCN4)cc3)nc21)S(C)(=O)=O` (stereo not shown) [Example 610], less than 20 nM.
Consider `N#Cc1ccccc1S(=O)(=O)n1ccc2cnc(Nc3ccc(C4CNCCN4)cc3)cc21` (stereo not shown) [Example 614], for which the IC50 is less than 20 nM.
The same measure, in the same setting: in the case of `C[C@H](O)CN1CCN(c2ccc(Nc3cc4c(ccn4S(=O)(=O)c4ccccc4C#N)cn3)cc2)CC1` [Example 631] it was less than 20 nM; in that of `Cc1cc(Nc2ncc3c(n2)N(S(=O)(=O)c2cccc4cccnc24)CC3(C)C)ccc1N1CCC(N(C)C)CC1` [Example 648], more than 1000 nM.
Take `C[C@H](O)CN1CCN(c2ccc(Nc3ncc4ccn(Cc5ccccc5N(C)S(C)(=O)=O)c4n3)cc2)C[C@H]1C` [Example 692]: the 50% inhibitory concentration (IC50) is less than 20 nM.

The target in the next experiment is T2, recombinant human FAK1 (Homo sapiens, UniProt Q05397).
T2 construct: fused on or other part: N-terminal 6xHis tag
T2 sequence (Q05397 422-680 limits assumed): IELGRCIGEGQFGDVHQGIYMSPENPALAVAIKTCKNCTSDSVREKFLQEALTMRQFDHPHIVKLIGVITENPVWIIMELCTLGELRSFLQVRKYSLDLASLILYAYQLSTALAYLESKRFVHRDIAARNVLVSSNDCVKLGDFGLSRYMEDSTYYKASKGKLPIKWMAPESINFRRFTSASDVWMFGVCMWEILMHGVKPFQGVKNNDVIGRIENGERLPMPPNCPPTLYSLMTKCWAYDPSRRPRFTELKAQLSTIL
As to the kind of experiment: FAK1 HTRF assay. The format is biochemical.
Conditions: not given
On the procedure:
Active FAK1 was prepared for use in the Homogeneous Time-Resolved Fluorescence (HTRF) assay. Briefly, N-terminal 6 His tagged recombinant human FAK1, from residue 692-end (GenBank accession no. L13616) was expressed by Bacculovirus in sf9 cells. […] A 1.6 mg/mL (45 μM) stock was used in the HTRF assay at a final concentration of 10 nM.
Gastrin precursor (tyr87) biotinylated peptide which contains the residues surrounding tyrosine 87 (EEAY*GWM) of gastrin precursor was obtained (Cell Signaling Tech, Item no. 1310, Lot 7). The peptide was provided at a stock concentration of 6 μM, and used a final concentration of 0.5 μM in the HTRF assay.
10 mM stock in 100 μL Enzyme assay buffer pH7.4 was prepared freshly and used at a final concentration of 10 μM in the assay.
Powders were dissolved in 100% DMSO to a final stock concentration of 10 mM. The volume needed (in μL) to add for 10 mM=mg powder is 10^5/MW of compound. The final compound concentration in the assay plate started at 10 μM.
Pfizer FAK inhibitor PF-562271 (N-methyl-N-(3-(((2-((2-oxoindolin-5-yl)amino)-5-(trifluoromethyl)pyrimidin-4-yl)amino)methyl)pyridin-2-yl)methanesulfonamide) was prepared as per the reported procedure from US Patent Publication No. 2005/256145A1.
Streptavidin-Allophycocyanin was obtained (Prozyme, Cat. No. PJ25S. SA-APC was provided at a stock concentration of 2.06 mg/mL, where APC concentration was 11.6 μM and the streptavidin concentration was 15.5 μM. SA-APC was used at a final concentration of 12 nM in the assay (based on streptavidin concentration).
This reagent was obtained from Perkin ElmerAD0068. Europium-W1024-PT-66 Anti Phospho Tyrosine Ab is a monoclonal IgG1 that recognizes phospho tyrosine peptide. 100 μg/mL stock was used at a final concentration of 0.1 nM in the assay.
• 1. The compound dilutions were made by TECAN liquid handler as per the scheme in FIG. 1. • 2. 16 μL of diluted compound was added to each well of the assay plate using TECAN liquid handler. • 3. 20 μL of substrate mix (biotinylated gastrin precursor) was added into each well of the assay plate manually. • 4. 10 μL of enzyme mix (FAK1) was added to each well except mins. • 5. The plate was incubated at rt for 45 min with shaking. • 6. The HTRF mix was prepared and 75 μL was added to the HTRF plate. • 7. After the incubation was over, 10 μL of the mixture was transferred to the HTRF assay plate and incubated for 45 min at rt with shaking. • 8. The readings were taken in Pherastar in HTRF mode (ext 337 nm, em 665 & 620 nm) • 9. The results were analyzed using Graphpad Prism® software after calculation the z factor signal window and % inhibition. • 10. The IC50 was calculated.
`N#Cc1ccccc1S(=O)(=O)n1ccc2cnc(Nc3ccc4c(c3)CCC(=O)N4)nc21` [Example 115]: the IC50 is less than 20 nM.
On the same count and under the same terms, the value for `CN(C)c1cccc(Nc2ncc3ccn(Cc4cccnc4N(C)S(C)(=O)=O)c3n2)c1` [Example 139] was less than 20 nM.
On the same count and under the same terms, in the case of `CN(c1ncccc1Cn1ccc2cnc(Nc3ccc4c(c3)C(C)(C)CC(=O)N4)nc21)S(C)(=O)=O` [Example 211] it was less than 20 nM; in that of `CN(c1ncccc1Cn1ccc2cnc(Nc3ccc4c(c3)OCC(=O)N4)nc21)S(C)(=O)=O` [Example 218], less than 20 nM.
The same measure, in the same setting: in the case of `C[C@H]1CN(c2ccc(Nc3ncc4ccn(S(=O)(=O)c5cccc6cccnc56)c4n3)cc2)CCN1` [Example 230] it was less than 20 nM.
In the case of `O=S(=O)(c1cccc2cccnc12)n1ncc2cnc(Nc3ccc(N4CCNCC4)cc3)nc21` [Example 231, N-(4-(piperazin-1-yl)phenyl)-1-(quinolin-8-ylsulfonyl)-1H-pyrazolo[3,4-d]pyrimidin-6-amine], the IC50 is less than 20 nM.
As to `O=S(=O)(c1cccc2cccnc12)n1ccc2cnc(Nc3ccc(N4CCNCC4)cc3)cc21` [Example 321], the 50% inhibitory concentration (IC50) is less than 20 nM.
On the same count and under the same terms, in the case of `O=S(=O)(c1cccc2cccnc12)n1ccc2cnc(Nc3ccc(N4CCNCC4)c(F)c3)cc21` [Example 323] it was less than 20 nM; in that of `Cc1ccc(N(C)S(C)(=O)=O)c(Cn2ccc3cnc(Nc4ccc(C5CCC(N(C)C)CC5)cc4)nc32)c1` (stereo not shown) [Example 980], less than 20 nM; in that of `Cc1cnc(N(C)S(C)(=O)=O)c(Cn2ccc3cnc(Nc4ccc(N5CCC(N(C)C)CC5)c(C)c4)nc32)c1` [Example 981], less than 20 nM.
Same read-out and setting: the value for `CNC(=O)c1ccc(Nc2ncc3ccn(Cc4cc(F)ccc4N(C)S(C)(=O)=O)c3n2)cc1` [Example 983] was less than 20 nM; that for `CNC(=O)c1ccc(Nc2ncc3ccn(Cc4cc(C)ccc4N(C)S(C)(=O)=O)c3n2)cc1` [Example 986] was less than 20 nM.
